Data reported in ChEMBL document CHEMBL1201862, “PubChem BioAssay data set” (2004).
Calls of active or inactive are those of the source.

Tests used:
[1] = ADAM10 inhibitors, peptide cleavage, dose response, biochemical, QFRET (AID 743254);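 further: ADAM10 enzyme with the DM2 quenched FRET peptide as substrate; EDANS fluorescence gain as the protease cuts the substrate; inhibitor potency against ADAM10 proteolytic activity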
[2] = target: T1, Disintegrin and metalloproteinase domain-containing protein 17 (Homo sapiens, UniProt P78536); experiment: ADAM17 protease inhibitors, dose response, counter-screen for ADAM10 exosite inhibitor project, biochemical, quenched FRET substrate (AID 743253)
T1 sequence (P78536 whole entry, the tested form may be a part): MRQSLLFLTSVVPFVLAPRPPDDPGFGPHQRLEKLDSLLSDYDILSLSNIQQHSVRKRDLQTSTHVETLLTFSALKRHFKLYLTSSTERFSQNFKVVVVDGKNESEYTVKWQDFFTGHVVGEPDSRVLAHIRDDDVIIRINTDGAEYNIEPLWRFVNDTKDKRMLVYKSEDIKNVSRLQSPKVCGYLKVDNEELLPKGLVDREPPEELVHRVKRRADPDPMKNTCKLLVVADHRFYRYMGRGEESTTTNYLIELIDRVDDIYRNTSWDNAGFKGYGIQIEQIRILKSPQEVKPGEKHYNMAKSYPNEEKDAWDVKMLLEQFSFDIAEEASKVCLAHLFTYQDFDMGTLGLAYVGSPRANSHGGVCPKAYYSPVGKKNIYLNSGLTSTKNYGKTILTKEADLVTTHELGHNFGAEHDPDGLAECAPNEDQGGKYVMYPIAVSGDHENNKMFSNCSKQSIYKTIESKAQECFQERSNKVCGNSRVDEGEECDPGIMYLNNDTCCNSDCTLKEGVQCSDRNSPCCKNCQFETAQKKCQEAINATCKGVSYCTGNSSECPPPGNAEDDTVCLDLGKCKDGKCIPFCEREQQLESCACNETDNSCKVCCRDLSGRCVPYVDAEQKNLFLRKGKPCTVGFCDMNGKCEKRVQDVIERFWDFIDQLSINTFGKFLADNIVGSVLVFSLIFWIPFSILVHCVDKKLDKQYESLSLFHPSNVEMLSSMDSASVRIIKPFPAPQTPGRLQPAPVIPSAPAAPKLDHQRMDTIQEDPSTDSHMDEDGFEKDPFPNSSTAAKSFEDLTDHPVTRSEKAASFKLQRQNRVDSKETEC

[3] = target: T1, Disintegrin and metalloproteinase domain-containing protein 17; experiment: exosite inhibitors of ADAM17, dose response, biochemical (AID 743260)
cells = conditions: HEK293;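 further: cells exposed to compound for 48 hours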
[4] = target: T2, DNA repair protein RAD52 homolog (Homo sapiens, UniProt P43351); format: functional, biochemical
T2 sequence (P43351 whole entry): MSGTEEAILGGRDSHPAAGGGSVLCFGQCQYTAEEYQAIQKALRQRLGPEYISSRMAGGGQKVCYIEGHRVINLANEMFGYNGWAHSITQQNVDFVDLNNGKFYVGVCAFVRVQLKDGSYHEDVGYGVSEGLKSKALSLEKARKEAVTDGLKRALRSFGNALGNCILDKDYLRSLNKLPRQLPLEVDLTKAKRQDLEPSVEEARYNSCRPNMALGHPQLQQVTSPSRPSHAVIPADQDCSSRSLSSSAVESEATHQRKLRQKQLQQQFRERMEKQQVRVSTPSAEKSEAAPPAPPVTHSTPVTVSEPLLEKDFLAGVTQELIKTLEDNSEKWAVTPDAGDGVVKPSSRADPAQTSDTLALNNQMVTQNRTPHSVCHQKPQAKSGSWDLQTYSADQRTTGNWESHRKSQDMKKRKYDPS

[5] = HepG2 cell cytotoxicity, dose response, cytotoxicity control, ATP luminescence, cherry-pick, set 6 (AID 1053125); format: functional, cell-based
HeLa = experiment: HeLa cell cytotoxicity, dose response, cytotoxicity control, ATP luminescence, cherry-pick samples (AID 687004); format: functional, cell-based; conditions: Homo sapiens
HEK293 = experiment: HEK293T cell cytotoxicity, dose response, cytotoxicity control, ATP luminescence, cherry-pick samples (AID 687005); format: functional, cell-based; conditions: Homo sapiens;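 further: cells exposed to compound for 48 hours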
[6] = HEK293 Cytotoxicity Assay Measured in Cell-Based System Using Plate Reader - 7071-01_Inhibitor_Dose_CherryPick_Activity_Set2.; format: functional
[7] = target: Potassium channel subfamily K member 9 (Homo sapiens, UniProt Q9NPC2); experiment: TASK3 (KCNK9) channel inhibitors, thallium flux, SAR follow-up, selectivity assay for TASK1 inhibitor project, cell-based, FluxOR thallium flux, concentration-response (AID 652211); format: functional;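 further: potency is for inhibitors of the channel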
Chain of Potassium channel subfamily K member 9 (Q9NPC2 whole entry, the tested form may be a part): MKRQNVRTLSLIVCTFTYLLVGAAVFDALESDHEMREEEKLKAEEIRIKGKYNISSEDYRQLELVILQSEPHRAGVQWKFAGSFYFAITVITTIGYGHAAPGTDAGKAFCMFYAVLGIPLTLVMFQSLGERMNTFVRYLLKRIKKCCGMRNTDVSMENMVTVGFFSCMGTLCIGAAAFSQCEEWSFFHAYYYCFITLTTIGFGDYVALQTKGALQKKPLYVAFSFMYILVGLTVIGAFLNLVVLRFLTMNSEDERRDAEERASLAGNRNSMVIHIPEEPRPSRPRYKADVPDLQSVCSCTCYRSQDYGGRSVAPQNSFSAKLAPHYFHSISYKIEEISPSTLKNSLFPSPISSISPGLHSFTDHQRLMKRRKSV

[8] = target: Potassium channel subfamily K member 3 (Rattus norvegicus, UniProt O54912); experiment: SAR analysis for the identification of selective inhibitors of the two-pore domain potassium channel TASK1(KCNK3):Automated Electrophysiology.; format: functional
Chain of Potassium channel subfamily K member 3 (Rattus norvegicus, UniProt O54912) (O54912 whole entry, the tested form may be a part): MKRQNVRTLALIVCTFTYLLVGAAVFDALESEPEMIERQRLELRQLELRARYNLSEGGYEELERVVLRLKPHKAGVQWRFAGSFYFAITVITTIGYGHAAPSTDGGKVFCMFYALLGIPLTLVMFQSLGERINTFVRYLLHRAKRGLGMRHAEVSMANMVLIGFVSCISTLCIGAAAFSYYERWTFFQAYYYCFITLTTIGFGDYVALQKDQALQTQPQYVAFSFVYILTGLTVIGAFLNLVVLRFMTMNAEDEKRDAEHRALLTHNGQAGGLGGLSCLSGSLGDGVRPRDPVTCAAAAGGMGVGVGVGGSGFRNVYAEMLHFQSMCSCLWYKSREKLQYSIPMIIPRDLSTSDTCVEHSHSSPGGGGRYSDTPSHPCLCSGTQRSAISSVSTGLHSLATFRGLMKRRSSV

[9] = target: Potassium channel subfamily K member 3 (Homo sapiens, UniProt O14649); experiment: TASK1 (KCNK3) potassium channel inhibitors, SAR follow-up, CHO cells, FluxOR thallium flux (AID 652212); format: functional
Chain of Potassium channel subfamily K member 3 (Homo sapiens, UniProt O14649) (O14649 whole entry): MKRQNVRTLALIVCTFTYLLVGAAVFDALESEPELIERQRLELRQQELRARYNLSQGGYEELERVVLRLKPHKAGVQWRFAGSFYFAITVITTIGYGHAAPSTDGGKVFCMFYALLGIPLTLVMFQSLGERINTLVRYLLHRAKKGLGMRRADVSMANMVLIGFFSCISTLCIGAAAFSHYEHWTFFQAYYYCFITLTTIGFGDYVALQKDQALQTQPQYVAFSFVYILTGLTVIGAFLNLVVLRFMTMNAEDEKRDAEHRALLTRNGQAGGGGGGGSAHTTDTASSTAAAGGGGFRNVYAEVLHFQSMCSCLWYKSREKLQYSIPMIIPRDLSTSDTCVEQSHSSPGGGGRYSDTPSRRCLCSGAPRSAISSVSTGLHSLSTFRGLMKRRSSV

[10] = target: T3, Trace amine-associated receptor 1 (Homo sapiens, UniProt Q96RJ0); experiment: Counterscreen for antagonists of the human trace amine associated receptor 1 (hTAAR1): Fluorescence-based cell-based high throughput dose response assay to identify TAAR1 Agonists.; format: functional
T3 sequence (Q96RJ0 whole entry): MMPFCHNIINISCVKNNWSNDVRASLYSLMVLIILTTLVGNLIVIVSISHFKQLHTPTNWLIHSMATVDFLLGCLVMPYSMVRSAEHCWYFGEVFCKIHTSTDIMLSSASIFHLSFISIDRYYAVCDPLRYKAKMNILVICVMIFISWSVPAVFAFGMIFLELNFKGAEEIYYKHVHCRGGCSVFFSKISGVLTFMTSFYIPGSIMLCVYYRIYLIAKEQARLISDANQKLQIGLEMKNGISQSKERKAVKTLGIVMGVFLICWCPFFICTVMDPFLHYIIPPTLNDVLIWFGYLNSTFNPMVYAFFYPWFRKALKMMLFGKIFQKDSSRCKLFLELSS

[11] = Counterscreen for antagonists of the human trace amine associated receptor 1 (hTAAR1): Fluorescence-based cell-based high throughput dose response assay to identify nonselective Ga16 antagonists.; format: functional
[12] = target: T3, Trace amine-associated receptor 1; experiment: Fluorescence-based cell-based high throughput dose response assay to identify antagonists of the human trace amine associated receptor 1 (TAAR1).; format: functional
[13] = Counterscreen for […] of the human trace amine associated receptor 1 (TAAR1): Fluorescence-based cell-based high throughput dose response assay to identify nonselective Ga16 agonists.; format: functional
[14] = target: Metabotropic glutamate receptor 3 (Rattus norvegicus, UniProt P31422); experiment: mGlu3 NAM potency via calcium readout, dose response, mGlu3 NAM project, TREx293 cells, Galpha15, calcium flux (AID 651840); format: functional
Chain of Metabotropic glutamate receptor 3 (P31422 whole entry): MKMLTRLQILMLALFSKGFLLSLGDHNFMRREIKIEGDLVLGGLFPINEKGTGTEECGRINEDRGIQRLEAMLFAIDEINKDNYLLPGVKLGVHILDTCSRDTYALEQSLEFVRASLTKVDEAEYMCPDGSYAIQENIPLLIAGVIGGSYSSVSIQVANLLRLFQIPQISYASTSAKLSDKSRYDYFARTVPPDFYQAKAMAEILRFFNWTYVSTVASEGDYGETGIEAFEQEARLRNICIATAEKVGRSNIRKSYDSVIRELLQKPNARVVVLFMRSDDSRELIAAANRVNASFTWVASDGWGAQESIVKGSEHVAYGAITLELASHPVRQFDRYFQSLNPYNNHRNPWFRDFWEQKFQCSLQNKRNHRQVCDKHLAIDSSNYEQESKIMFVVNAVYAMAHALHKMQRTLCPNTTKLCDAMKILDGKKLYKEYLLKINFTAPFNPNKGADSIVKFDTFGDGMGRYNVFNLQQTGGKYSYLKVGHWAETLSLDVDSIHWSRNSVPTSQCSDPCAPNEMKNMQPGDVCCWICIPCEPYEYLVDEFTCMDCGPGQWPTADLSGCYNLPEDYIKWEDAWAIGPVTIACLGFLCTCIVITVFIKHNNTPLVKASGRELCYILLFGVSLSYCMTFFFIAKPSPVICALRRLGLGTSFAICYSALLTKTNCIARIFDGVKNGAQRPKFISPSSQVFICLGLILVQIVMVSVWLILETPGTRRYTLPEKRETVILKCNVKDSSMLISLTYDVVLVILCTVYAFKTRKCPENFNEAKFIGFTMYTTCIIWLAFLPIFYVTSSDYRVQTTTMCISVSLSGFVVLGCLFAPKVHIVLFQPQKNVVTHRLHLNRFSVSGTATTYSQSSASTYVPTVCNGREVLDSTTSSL

[15] = cytotoxicity in OV-90 ovarian cancer cells, dose response, PAX8 inhibitor project, cell-based, plate reader, dry powder, SA8 (AID 743149); format: functional
[16] = IGROV1 ovarian cancer cell cytotoxicity, dose response, PAX8 inhibitor project, plate reader, dry powder samples (AID 743043); format: functional, cell-based; conditions: IGROV-1
Paired box protein Pax-8 = Paired box protein Pax-8 (Homo sapiens, UniProt Q06710); experiment: inhibitors of PAX8-driven TPO luciferase reporter, dose response, RMG-I cells, cherry-pick (AID 687027); format: functional, cell-based;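 further: luciferase reporter driven by Pax8 target thyroperoxidase promoter measured by SteadyGlo luminescence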
Chain of Paired box protein Pax-8 (Q06710 whole entry): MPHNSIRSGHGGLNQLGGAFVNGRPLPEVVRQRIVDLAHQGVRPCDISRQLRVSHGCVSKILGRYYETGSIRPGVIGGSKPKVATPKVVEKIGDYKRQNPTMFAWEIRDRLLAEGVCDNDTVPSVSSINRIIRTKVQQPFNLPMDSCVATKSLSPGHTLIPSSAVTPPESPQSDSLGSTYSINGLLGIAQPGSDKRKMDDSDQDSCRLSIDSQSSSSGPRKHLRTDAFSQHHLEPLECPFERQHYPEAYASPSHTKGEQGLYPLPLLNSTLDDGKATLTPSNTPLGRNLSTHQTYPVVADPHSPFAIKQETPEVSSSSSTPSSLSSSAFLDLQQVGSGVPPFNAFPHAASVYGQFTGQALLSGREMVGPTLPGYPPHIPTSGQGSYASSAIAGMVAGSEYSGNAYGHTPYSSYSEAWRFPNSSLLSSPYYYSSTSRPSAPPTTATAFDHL

[17] = cytotoxicity in OVCAR4 cells, dose response, cytotoxicity control for PAX8 inhibitor project, cell-based, plate reader, dry powder, SA11 (AID 743150); format: functional; conditions: OVCAR-4
[18] = A2780 ovarian cancer cell cytotoxicity, dose response, cytotoxicity control, plate reader, dry powder samples (AID 743046); format: functional, cell-based
BJ [19] = experiment: cells; format: functional, cell-based; conditions: Homo sapiens
[20] = PAX2 cell-based inhibition, dose response, selectivity assay for PAX8 inhibitor project, plate reader, dry powder samples (AID 743048); format: functional;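 further: HEK293 cells carrying a WT1 promoter luciferase reporter driven by expressed Pax2; potency is for inhibition of Pax2 driven reporter signal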
[21] = cytotoxicity toward DRD oncogenic fibroblasts, dose response, cell-based, non-viral oncogenic, luminescence (AID 1934); format: functional; conditions: Homo sapiens
[22] = cytotoxicity in COV434 cells, dose response, cytotoxicity control for PAX8 inhibitor project, cell-based, plate reader, dry powder, SA7 (AID 743145); format: functional
BJ [23] = experiment: cytotoxicity toward Ras-transformed BJeLR fibroblasts, dose response, cell-based, alamar blue fluorescence, cherrypicked samples (AID 2631); format: functional; conditions: Homo sapiens;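 further: confirmatory dose-response assay in RAS-dependent BJ fibroblasts engineered with TERT, LT and ST, with cytotoxicity read by fluorescence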
[24] = Luminescence Cell-Based Dose Response HTS to Identify Inhibitors of 5'UTR Stem-Loop Driven Prion Protein mRNA Translation in H4 Neuroglioblastoma Cells. [Related pubchem assays: 1827 (Project Summary), 1813 (Primary HTS)]; format: functional
[25] = cytotoxicity dependent on PAX8, dose response, cell-based, plate reader, dry powder (AID 743049); format: functional
[26] = NIH:OVCAR-3 ovarian cancer cell cytotoxicity, dose response, PAX8 inhibitor project, plate reader, dry powder samples (AID 743044); format: functional, cell-based
[27] = inhibitors of SNCA 5'UTR-driven reporter translation, confirmation, H4 neuroglioma cells, luminescence (AID 1988); format: functional, cell-based
[28] = PAX5 activity inhibitors, dose response, selectivity assay for PAX8 inhibitor project, cell-based, plate reader, dry powder samples (AID 743047); format: functional;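 further: HEK293 cells carrying a Pax5 driven CD19 promoter luciferase reporter; potency of inhibitors that lower reporter luminescence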
[29] = IOSE-T80 ovarian epithelial cell cytotoxicity, dose response, cytotoxicity control for PAX8 inhibitor project, plate reader, dry powder samples (AID 743045); format: functional, cell-based
BJ [30] = experiment: cytotoxicity toward BJ-TERT fibroblasts, dose response, cell-based, RAS-independent, luminescence (AID 1933); format: functional; conditions: Homo sapiens
BJ [31] = experiment: cytotoxicity toward BJ-TERT-LT-ST fibroblasts, dose response, cell-based, RAS-independent, luminescence (AID 1935); format: functional; conditions: Homo sapiens;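 further: BJ fibroblasts immortalized with TERT plus LT and ST oncogenes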
[32] = cytotoxicity in COV362 ovarian cancer cells, dose response, cytotoxicity control for PAX8 inhibitor project, cell-based, plate reader, dry powder, SA12 (AID 743144); format: functional
[33] = inhibitors of firefly luciferase expression or activity, dose response, H4 neuroglioma cells, luminescence (AID 1990); format: functional, cell-based
[34] = target: Scavenger receptor class B member 1 (Mus musculus, UniProt Q61009); experiment: inhibitors of SR-BI-mediated HDL uptake, dose response, cell-based, ldlA[mSR-BI] CHO, DiI fluorescence, dry powder, set 10 (AID 624029); format: functional
Chain of Scavenger receptor class B member 1 (Q61009 whole entry): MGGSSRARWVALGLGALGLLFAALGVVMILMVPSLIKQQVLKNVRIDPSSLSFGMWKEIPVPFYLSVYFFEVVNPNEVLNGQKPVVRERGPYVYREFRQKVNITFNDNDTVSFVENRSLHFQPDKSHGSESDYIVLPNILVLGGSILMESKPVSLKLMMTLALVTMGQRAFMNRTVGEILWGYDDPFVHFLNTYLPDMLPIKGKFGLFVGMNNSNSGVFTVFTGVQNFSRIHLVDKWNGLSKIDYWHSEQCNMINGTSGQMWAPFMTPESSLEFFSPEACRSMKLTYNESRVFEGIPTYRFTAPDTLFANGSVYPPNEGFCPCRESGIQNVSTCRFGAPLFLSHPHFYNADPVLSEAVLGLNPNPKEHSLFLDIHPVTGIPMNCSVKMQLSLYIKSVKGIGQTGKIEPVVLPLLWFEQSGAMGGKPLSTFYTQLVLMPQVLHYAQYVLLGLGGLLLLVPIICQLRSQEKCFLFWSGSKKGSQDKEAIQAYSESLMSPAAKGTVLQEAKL

O=C(NCC1CCCO1)C(c1cccs1)N(Cc1ccccc1)C(=O)c1ccc(-c2ccccc2)[nH]1 (stereo not drawn)
IC50 [1]: > 69.5 µM (inactive)
IC50 [2]: > 69.5 µM (inactive)
IC50 [3]: > 69.5 µM (inactive)

Cc1cccn2c(=O)c3cc(C(=O)NC(C)c4ccccc4)c(=N)n(CCCn4ccnc4)c3nc12 (stereo not drawn)
AC50 (cells): > 52 µM (inactive)
AC50 [4]: 4.29 µM (active)
AC50 [5]: > 52 µM (inactive)

Cc1noc(C)c1NC(=O)Nc1ccc2c(c1)C(=O)N(C)[C@@H]1CC[C@H](CC(=O)N[C@H]3CCN(Cc4ccccc4)C3)O[C@@H]1CO2
AC50 (HeLa): > 47 µM (inactive)
AC50 (HEK293): 29.7 µM (active)
AC50 [6]: 29.7 µM (active)

CCOc1ccccc1NC(=O)c1cccc(NC(=O)c2cccc(Cl)c2)c1
IC50 [7]: 1.84 µM (active)
IC50 [8]: 2.86 µM (active)
IC50 [9]: 0.039 µM (active)

Cc1ccc(/C=N/NC(=O)c2ccccc2OCc2cccc(Br)c2)o1
EC50 [10]: > 29.9 µM (inactive)
IC50 [11]: > 29.9 µM (inactive)
IC50 [12]: 3.69 µM (active)
EC50 [13]: > 29.9 µM (inactive)

COc1ccc(C#Cc2ccc(C(=O)N3CCCC(O)(Cc4ccccc4)C3)cc2)cc1 (stereo not drawn)
IC50 [14]: 8.87 µM (active)

CCOc1ccc2c(c1)C(C)=CC(C)(C)N2S(=O)(=O)c1ccc(NC(C)=O)cc1
AC50 [15]: 2.6 µM (active)
AC50 [16]: 15.9 µM (active)
AC50 (Paired box protein Pax-8): 1.61 µM (active)
AC50 [17]: 1.83 µM (active)
AC50 [18]: 4.06 µM (active)
EC50 (BJ [19]): 1.54 µM (active)
AC50 [20]: 31.8 µM (active)
EC50 [21]: 0.722 µM (active)
AC50 [22]: 1.53 µM (active)
EC50 (BJ [23]): < 0.104 µM (active)
EC50 [24]: 0.162 µM (active)
AC50 [25]: 12.1 µM (active)
AC50 [26]: 41.1 µM (active)
EC50 [27]: 0.129 µM (active)
AC50 [28]: 89.2 µM (active)
AC50 [29]: 2.54 µM (active)
EC50 (BJ [30]): 0.642 µM (active)
EC50 (BJ [31]): 0.428 µM (inconclusive)
AC50 [32]: 4.1 µM (active)
EC50 [33]: 0.199 µM (active)

CC(C)NC(=O)Nc1ccc2c(c1)C(=O)N([C@@H](C)CO)C[C@@H](C)[C@H](CN(C)S(=O)(=O)c1ccc(Cl)cc1)O2
AC50 [34]: 0.154 µM (active)
